Results taken from ChEMBL document CHEMBL1681655, “Identification of a new series of non-peptidic NK3 receptor antagonists” (Bioorg Med Chem Lett, 2011).

Tests used:
Neuromedin-K receptor = biological target: T1, Neuromedin-K receptor (Homo sapiens, UniProt P29371); experiment: Displacement of [3H]Lu AE93103 from human NK3 receptor expressed in BHK cells; type: cell-based
T1 sequence (P29371 whole entry): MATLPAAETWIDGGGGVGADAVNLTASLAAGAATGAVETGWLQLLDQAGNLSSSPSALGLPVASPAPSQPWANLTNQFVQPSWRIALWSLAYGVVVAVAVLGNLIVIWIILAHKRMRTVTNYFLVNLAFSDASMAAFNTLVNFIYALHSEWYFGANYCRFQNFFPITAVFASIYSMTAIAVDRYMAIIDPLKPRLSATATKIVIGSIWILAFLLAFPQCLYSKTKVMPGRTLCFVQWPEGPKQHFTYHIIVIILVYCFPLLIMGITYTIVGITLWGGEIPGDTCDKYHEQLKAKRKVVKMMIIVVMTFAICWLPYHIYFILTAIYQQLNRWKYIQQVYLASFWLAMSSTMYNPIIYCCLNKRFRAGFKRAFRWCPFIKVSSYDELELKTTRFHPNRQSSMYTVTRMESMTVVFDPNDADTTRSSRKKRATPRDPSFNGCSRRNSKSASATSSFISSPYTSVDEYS

Substance-P receptor = Substance-P receptor (Homo sapiens, UniProt P25103); experiment: Displacement of [125I]SP from human cloned NK1 receptor
Substance-K receptor = biological target: T2, Substance-K receptor (Homo sapiens, UniProt P21452); experiment: Displacement of [125I]NKA from human cloned NK2 receptor
T2 sequence (P21452 whole entry): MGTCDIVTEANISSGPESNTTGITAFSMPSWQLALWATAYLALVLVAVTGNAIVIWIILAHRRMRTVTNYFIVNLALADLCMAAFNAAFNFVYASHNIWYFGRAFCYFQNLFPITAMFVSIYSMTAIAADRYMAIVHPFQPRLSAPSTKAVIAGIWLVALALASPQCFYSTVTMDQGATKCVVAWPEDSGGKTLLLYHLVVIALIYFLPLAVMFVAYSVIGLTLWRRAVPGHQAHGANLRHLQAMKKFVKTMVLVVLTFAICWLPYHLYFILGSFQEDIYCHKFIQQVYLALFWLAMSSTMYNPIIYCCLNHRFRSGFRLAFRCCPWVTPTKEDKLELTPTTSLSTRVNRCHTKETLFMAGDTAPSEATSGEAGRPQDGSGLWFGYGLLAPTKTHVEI

Liver microsomes [1] = experiment: Intrinsic clearance in human liver microsomes; type: ADME, Microsome
[2] = Apparent permeability of the compound in human Caco2 cells; type: ADME, cell-based; conditions: caco-2
Caco-2 = experiment: Efflux ratio of permeability from […] in human Caco2 cells; type: ADME, cell-based
Liver microsomes [3] = experiment: Intrinsic clearance in rat liver microsomes; type: ADME, Microsome
[4] = Oral bioavailability in rat; type: ADME, organism-based; conditions: in vivo
Gerbillinae = experiment: Reversal of senktide-induced explorative behavior in sc dosed gerbils compound pretreated 60 mins before senktide induction by […] assay; type: functional
[5] = Ratio of drug level in brain to plasma in sc dosed gerbils after 90 mins; type: ADME, organism-based; conditions: gerbillinae, read-out: BPR
[6] = Clearance in rat; type: ADME, organism-based; conditions: in vivo

Sequence of Substance-P receptor (P25103 whole entry): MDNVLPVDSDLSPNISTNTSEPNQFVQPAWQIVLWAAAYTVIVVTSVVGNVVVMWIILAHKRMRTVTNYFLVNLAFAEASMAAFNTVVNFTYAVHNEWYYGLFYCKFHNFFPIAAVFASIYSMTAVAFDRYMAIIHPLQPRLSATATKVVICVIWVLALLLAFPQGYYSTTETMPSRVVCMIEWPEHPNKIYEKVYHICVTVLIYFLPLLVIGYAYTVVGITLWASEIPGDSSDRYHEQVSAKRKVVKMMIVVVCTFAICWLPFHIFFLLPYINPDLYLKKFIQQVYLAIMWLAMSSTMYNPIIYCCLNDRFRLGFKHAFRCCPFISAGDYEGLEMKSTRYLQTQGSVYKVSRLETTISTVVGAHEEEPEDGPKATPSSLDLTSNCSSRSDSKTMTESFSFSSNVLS

Row | Compound | Ki (Neuromedin-K receptor) [nM] | CL (Liver microsomes [1]) [L/min] | Papp [2] [×10⁻⁶ cm/s] | Ratio (Caco-2) | further results
1 | CN(Cc1ccccc1)C(=O)[C@@]1(c2ccc(Cl)c(Cl)c2)C[C@H]1CN1CCC(C(=O)N2CCCCC2)(c2ccccc2)CC1 | 6.1 | > 20 | 0.3 | 17 | 
2 | CN(Cc1ccccc1)C(=O)[C@@]1(c2ccc(Cl)c(Cl)c2)C[C@H]1CN1CCC(NC(N)=O)(c2ccccc2)CC1 | 12 | 2 | 0.6 | 85 | 
3 | CN(Cc1ccccc1)C(=O)[C@@]1(c2ccc(Cl)c(Cl)c2)C[C@H]1CN1CCC(NS(C)(=O)=O)(c2ccccc2)CC1 | 7.8 | 15 | 0.1 | 120 | 
4 | CN(C)C(=O)CCN1CCN(C[C@@H]2C[C@@]2(C(=O)N(C)Cc2ccc(F)cc2)c2ccc(Cl)c(Cl)c2)CC1 | 17 | 8.5 | 28 | 1.1 | 
5 | CN(Cc1ccc(F)cc1)C(=O)[C@@]1(c2ccc(Cl)c(Cl)c2)C[C@H]1CN1CCN(C(=O)CN2CCCCC2)CC1 | 7.3 | 10 | 2.9 | 4.2 | 
6 | CN(Cc1ccc(F)cc1)C(=O)[C@@]1(c2ccc(Cl)c(Cl)c2)C[C@H]1CN1CCN(C(=O)CN2CCCC2)CC1 | 12 | 5.6 | 5.7 | 3.5 | 
7 | CN(Cc1ccc(F)cc1)C(=O)[C@@]1(c2ccc(Cl)c(Cl)c2)C[C@H]1CN1CCN(S(=O)(=O)N(C)C)CC1 | 7.6 | > 20 | 25 | 1.5 | Ki (Substance-P receptor): 340 nM; Ki (Substance-K receptor): 75 nM; CL (Liver microsomes [3]): 210 mL/min; bioavailability [4]: < 5%; ED50 (Gerbillinae): 14.2 mg/kg; Kp at 1.5 h [5]: 1.9; clearance [6]: 108 mL/min/kg
8 | CN(Cc1ccc(F)cc1)C(=O)[C@@]1(c2ccc(Cl)c(Cl)c2)C[C@H]1CN1CCN(C(=O)CN2CCCCCC2)CC1 | 8.7 | 15 |  |  | 
9 | CCCNC[C@@H]1C[C@@]1(C(=O)N(C)Cc1ccc(F)cc1)c1ccc(Cl)c(Cl)c1 | 150 | 0.9 | 5.4 | 2.7 | 
10 | CC(C)NC[C@@H]1C[C@@]1(C(=O)N(C)Cc1ccc(F)cc1)c1ccc(Cl)c(Cl)c1 | 140 | 0.9 | 11 | 1.5 | 
11 | CC(=O)NC1(c2ccccc2)CCN(CC2CC2(C(=O)N(C)Cc2ccc(C)cc2)c2ccc(Cl)c(Cl)c2)CC1 (racemic) | 7.5 |  |  |  | 
12 | CC(=O)NC1(c2ccccc2)CCN(CC2CC2(C(=O)N(C)Cc2ccc(Cl)cc2)c2ccc(Cl)c(Cl)c2)CC1 (racemic) | 11 |  |  |  | 
13 | COc1ccc(CN(C)C(=O)C2(c3ccc(Cl)c(Cl)c3)CC2CN2CCC(NC(C)=O)(c3ccccc3)CC2)cc1 (racemic) | 15 |  |  |  | 
14 | CSc1ccc(CN(C)C(=O)C2(c3ccc(Cl)c(Cl)c3)CC2CN2CCC(NC(C)=O)(c3ccccc3)CC2)cc1 (racemic) | 28 |  |  |  | 
15 | CC(=O)NC1(c2ccccc2)CCN(CC2CC2(C(=O)N(C)Cc2cccc(Cl)c2Cl)c2ccc(Cl)c(Cl)c2)CC1 (racemic) | 24 |  |  |  | 
16 | CC(=O)NC1(c2ccccc2)CCN(CC2CC2(C(=O)N(C)Cc2ccc(Cl)cc2Cl)c2ccc(Cl)c(Cl)c2)CC1 (racemic) | 16 |  |  |  | 
17 | CC(=O)NC1(c2ccccc2)CCN(CC2CC2(C(=O)N(C)Cc2ccc(Cl)c(Cl)c2)c2ccc(Cl)c(Cl)c2)CC1 (racemic) | 13 |  |  |  | 
18 | CC(=O)NC1(c2ccccc2)CCN(CC2CC2(C(=O)N(C)Cc2cc(Cl)cc(Cl)c2)c2ccc(Cl)c(Cl)c2)CC1 (racemic) | 23 |  |  |  | 
19 | COc1ccc(CN(C)C(=O)C2(c3ccc(Cl)c(Cl)c3)CC2CN2CCC(NC(C)=O)(c3ccccc3)CC2)cc1OC (racemic) | 67 |  |  |  | 
20 | COc1cc(CN(C)C(=O)C2(c3ccc(Cl)c(Cl)c3)CC2CN2CCC(NC(C)=O)(c3ccccc3)CC2)cc(OC)c1 (racemic) | 32 |  |  |  | 
21 | CC(=O)NC1(c2ccccc2)CCN(CC2CC2(C(=O)N(C)Cc2cccs2)c2ccc(Cl)c(Cl)c2)CC1 (racemic) | 70 |  |  |  | 
22 | CC(=O)NC1(c2ccccc2)CCN(CC2CC2(C(=O)N(C)Cc2ccsc2)c2ccc(Cl)c(Cl)c2)CC1 (racemic) | 14 |  |  |  | 

Molecules with a lower Ki (Neuromedin-K receptor), results first:

Row | Ki (Neuromedin-K receptor) [nM] | CL (Liver microsomes [1]) [L/min] | Papp [2] [×10⁻⁶ cm/s] | Ratio (Caco-2) | Compound | further results
23 | 5.9 | 3.5 | 5.6 | 2.6 | CC(=O)NC1(c2ccccc2)CCN(C[C@@H]2C[C@@]2(C(=O)N(C)Cc2ccccc2)c2ccc(Cl)c(Cl)c2)CC1 | Ki (Substance-P receptor): 130 nM; Ki (Substance-K receptor): 88 nM
24 | 4.2 | 19 | 0.8 | 12 | CC(=O)N(C)C1(c2ccccc2)CCN(C[C@@H]2C[C@@]2(C(=O)N(C)Cc2ccccc2)c2ccc(Cl)c(Cl)c2)CC1 | 
25 | 1.5 | 6.3 | 0.4 | > 100 | COC(=O)NC1(c2ccccc2)CCN(C[C@@H]2C[C@@]2(C(=O)N(C)Cc2ccccc2)c2ccc(Cl)c(Cl)c2)CC1 | 
26 | 2.8 | > 20 |  |  | CN(C)C(=O)NC1(c2ccccc2)CCN(C[C@@H]2C[C@@]2(C(=O)N(C)Cc2ccccc2)c2ccc(Cl)c(Cl)c2)CC1 | 
27 | 5.6 | 6.8 | 0.6 | 42 | CNC(=O)NC1(c2ccccc2)CCN(C[C@@H]2C[C@@]2(C(=O)N(C)Cc2ccccc2)c2ccc(Cl)c(Cl)c2)CC1 | 
28 | 3.6 | 6.9 | 1.3 | 13 | CN(Cc1ccccc1)C(=O)[C@@]1(c2ccc(Cl)c(Cl)c2)C[C@H]1CN1CCC(c2ccccc2)(N(C)C(=O)C(N)=O)CC1 | 
29 | 3.3 | 16 | 35 | 1.5 | CN(Cc1ccc(F)cc1)C(=O)[C@@]1(c2ccc(Cl)c(Cl)c2)C[C@H]1CN1CCN(C(=O)CN2CCOCC2)CC1 | 
30 | 3.7 | 4.3 |  |  | CN(Cc1ccc(F)cc1)C(=O)[C@@]1(c2ccc(Cl)c(Cl)c2)C[C@H]1CN1CCN(CCN2CCOCC2)CC1 | 
31 | 1.8 | 12 | 27 | 1.3 | CN(Cc1ccc(F)cc1)C(=O)[C@@]1(c2ccc(Cl)c(Cl)c2)C[C@H]1CN1CCN(CC(=O)N2CCCC2)CC1 | 
32 | 5.8 | > 20 |  |  | CN(Cc1ccc(F)cc1)C(=O)[C@@]1(c2ccc(Cl)c(Cl)c2)C[C@H]1CN1CCN(S(=O)(=O)N2CCCC2)CC1 | 
33 | 1.9 | 12 |  |  | CN(Cc1ccc(F)cc1)C(=O)[C@@]1(c2ccc(Cl)c(Cl)c2)C[C@H]1CN1CC(N2CCN(S(=O)(=O)N(C)C)CC2)C1 | 
34 | 4.6 |  |  |  | CC(=O)NC1(c2ccccc2)CCN(CC2CC2(C(=O)N(C)Cc2ccc(C(F)(F)F)cc2)c2ccc(Cl)c(Cl)c2)CC1 (racemic) | 
35 | 5.9 |  |  |  | COc1ccc(CN(C)C(=O)C2(c3ccc(Cl)c(Cl)c3)CC2CN2CCC(NC(C)=O)(c3ccccc3)CC2)c(OC)c1 (racemic) | 
